Experimental data from patent publication US11464802B2, “3-substituted piperidine compounds for Cbl-b inhibition, and use thereof” (Nurix Therapeutics, Inc., priority 2019, dated 2022).

Experiments:
[1] = system: primary human total T-cells; assay: Primary human total T-cell activation: CD25 surface staining, Biological Example 13; format: cell-based; conditions: 48 hours, fold change over baseline; for fold induction at 0.3 µM: inhibitor 0.3 μM; for fold induction at 0.3 µM / fold induction at 3 µM: Table 13-1; for fold induction at 1 µM: inhibitor 1 μM; for fold induction at 3 µM: inhibitor 3 μM
Cbl-b [2] = target: T1, Cbl-b (Homo sapiens (Human), UniProt Q13191); assay: Cbl-b displacement assay (Cbl-b inhibition assay), Biological Example 12; format: binding; conditions: 0.125 nM Cbl-b final concentration (Low); Table 12-1; read-out: Cbl-b IC50 (Low)
Summary of the method: (§1)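 Biotinylated Avitag-Cbl-b (residues 36-427) at 0.5 nM ("High") or 0.125 nM ("Low") final was preincubated 1 h at room temperature with compound (1% DMSO) in 20 mM HEPES pH 7.5, 150 mM NaCl, 0.01% Triton X-100, 0.01% BSA, 0.5 mM TCEP. Then 150 nM BODIPY FL inhibitor probe (~EC40) plus 2 nM streptavidin-terbium, 1 h; TR-FRET 520/620 read, IC50 derived.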

[3] = system: primary human total T-cells; assay: Primary human total T-cell activation: CD25 surface staining, Biological Example 2; format: cell-based; conditions: 48 hours, fold change over baseline; for fold induction at 0.3 µM: inhibitor 0.3 μM; for fold induction at 1 µM: inhibitor 1 μM; for fold induction at 3 µM: inhibitor 3 μM
[4] = system: primary human total T-cells; assay: Primary human total T-cell activation: CD25 surface staining, Biological Example 9; format: cell-based; conditions: 48 hours, fold change over baseline; for fold induction at 0.3 µM: inhibitor 0.3 μM; for fold induction at 0.3 µM / fold induction at 3 µM: Table 9-1; for fold induction at 1 µM: inhibitor 1 μM; for fold induction at 3 µM: inhibitor 3 μM
[5] = system: primary human total T-cells; assay: Primary human total T-cell activation: IL-2 secretion, Biological Example 9; format: cell-based; conditions: 48 hours, fold change over baseline; for fold induction at 0.3 µM: inhibitor 0.3 μM; for fold induction at 0.3 µM / fold induction at 3 µM: Table 9-1; for fold induction at 1 µM: inhibitor 1 μM; for fold induction at 3 µM: inhibitor 3 μM
[6] = system: primary human total T-cells; assay: Primary human total T-cell activation: IL-2 secretion, Biological Example 2; format: cell-based; conditions: 48 hours, fold change over baseline; for fold induction at 0.3 µM: inhibitor 0.3 μM; for fold induction at 1 µM: inhibitor 1 μM; for fold induction at 3 µM: inhibitor 3 μM
Cbl-b [7] = target: T1, Cbl-b; assay: Cbl-b displacement assay (Cbl-b inhibition assay), Biological Example 8; format: binding; conditions: 0.125 nM Cbl-b final concentration (Low); Table 8-1; read-out: Cbl-b IC50 (Low)
Summary of the method: as §1

[8] = system: primary human total T-cells; assay: Primary human total T-cell activation: IL-2 secretion, Biological Example 13; format: cell-based; conditions: 48 hours, fold change over baseline; for fold induction at 0.3 µM: inhibitor 0.3 μM; for fold induction at 0.3 µM / fold induction at 3 µM: Table 13-1; for fold induction at 1 µM: inhibitor 1 μM; for fold induction at 3 µM: inhibitor 3 μM
Cbl-b [9] = target: T1, Cbl-b; assay: Cbl-b displacement assay (Cbl-b inhibition assay), TR-FRET probe displacement, Biological Example 1; format: binding
Summary of the method: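 TR-FRET displacement of a BODIPY FL-labelled inhibitor probe (150 nM, ~EC40) from biotin-Avitag truncated Cbl-b, detected via 2 nM streptavidin-Tb, 1 h, room temperature. Compound in 1% DMSO pre-incubated 1 h with Cbl-b at 0.5 nM (High) or 0.125 nM (Low) in 20 mM HEPES pH 7.5, 150 mM NaCl, 0.5 mM TCEP.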

[10] = anti-CD3/anti-CD28 co-stimulation
[11] = anti-CD3/anti-CD28 co-stimulation, Table 13-1, read-out: CD25 staining CD3/CD28 1 μM
[12] = anti-CD3 alone, Table 13-1, read-out: CD25 staining CD3 1 μM
[13] = anti-CD3/anti-CD28 co-stimulation, read-out: CD25 staining CD3/CD28 1 μM
[14] = anti-CD3 alone, read-out: CD25 staining CD3 1 μM
[15] = anti-CD3/anti-CD28 co-stimulation, Table 9-1, read-out: CD25 staining CD3/CD28 1 μM
[16] = anti-CD3 alone, Table 9-1, read-out: CD25 staining CD3 1 μM
[17] = anti-CD3/anti-CD28 co-stimulation, Table 9-1, read-out: IL-2 secretion CD3/CD28 1 μM
[18] = anti-CD3 alone, Table 9-1, read-out: IL-2 secretion CD3 1 μM
[19] = anti-CD3/anti-CD28 co-stimulation, read-out: IL-2 secretion CD3/CD28 1 μM
[20] = anti-CD3 alone, read-out: IL-2 secretion CD3 1 μM
[21] = anti-CD3/anti-CD28 co-stimulation, Table 13-1, read-out: IL-2 secretion CD3/CD28 1 μM
[22] = anti-CD3 alone, Table 13-1, read-out: IL-2 secretion CD3 1 μM
[23] = 0.125 nM Cbl-b final concentration (Low), read-out: Cbl-b activity IC50 (Low)
[24] = Cbl-b concentration (High or Low) not given, read-out: IC50 values in the Cbl-b inhibition assay of Biological Example 1

T1 sequence (Q13191 36-427): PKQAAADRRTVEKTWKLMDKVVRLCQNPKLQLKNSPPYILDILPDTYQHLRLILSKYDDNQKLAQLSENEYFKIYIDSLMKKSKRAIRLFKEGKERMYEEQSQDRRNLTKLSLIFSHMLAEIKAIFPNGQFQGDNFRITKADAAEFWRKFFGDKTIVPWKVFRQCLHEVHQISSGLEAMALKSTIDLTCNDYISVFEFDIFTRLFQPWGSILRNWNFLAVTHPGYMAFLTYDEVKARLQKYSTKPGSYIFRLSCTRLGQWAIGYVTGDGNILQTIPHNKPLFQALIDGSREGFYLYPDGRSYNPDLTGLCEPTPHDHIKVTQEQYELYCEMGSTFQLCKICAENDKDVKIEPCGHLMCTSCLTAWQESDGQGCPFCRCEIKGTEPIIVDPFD

Structure (SMILES) | fold induction at 0.3 µM [1, 10] | fold induction at 1 µM [1, 11] | fold induction at 1 µM [1, 12] | fold induction at 3 µM ([1]; anti-CD3 alone) | IC50 (Cbl-b [2]) | fold induction at 0.3 µM [3, 10] | fold induction at 1 µM [3, 13] | fold induction at 1 µM [3, 14] | fold induction at 3 µM ([3]; anti-CD3 alone) | fold induction at 0.3 µM [4, 10] | fold induction at 1 µM [4, 15] | fold induction at 1 µM [4, 16] | fold induction at 3 µM ([4]; anti-CD3 alone) | fold induction at 0.3 µM [5, 10] | fold induction at 1 µM [5, 17] | fold induction at 1 µM [5, 18] | fold induction at 3 µM ([5]; anti-CD3 alone) | fold induction at 0.3 µM [6, 10] | fold induction at 1 µM [6, 19] | fold induction at 1 µM [6, 20] | further results
CCNc1cc(C2(Cc3nncn3C)COC2)cc(N2Cc3c(cc(CN4CCC[C@H](C)C4)cc3C(F)(F)F)C2=O)n1 [Compound 44, 2-[6-(ethylamino)-4-{3-[(4-methyl-1,2,4-triazol-3-yl)methyl]oxetan-3-yl}pyridin-2-yl]-6-{[(3S)-3-methylpiperidin-1-yl]methyl}-4-(trifluoromethyl)-3H-isoindol-1-one] | 1.25 to 1.39 | 1.25 to 1.39 | 1.05 to 1.14 | 1.05 to 1.14 | < 1 nM | > 1.39 | > 1.39 | > 1.14 | > 1.14 | 1.25 to 1.39 | 1.25 to 1.39 | 1.05 to 1.14 | 1.05 to 1.14 | < 10 | < 10 | < 0.33 | 0.34 to 0.66 | > 15 | > 15 | > 0.66 | fold induction at 3 µM ([6]; anti-CD3 alone): > 0.66; IC50 (Cbl-b [7]): < 1 nM; fold induction at 0.3 µM [8, 10]: < 10; fold induction at 1 µM [8, 21]: < 10; fold induction at 1 µM [8, 22]: < 0.33; fold induction at 3 µM ([8]; anti-CD3 alone): 0.34 to 0.66; IC50 (Cbl-b [9]; [23]): < 1 nM; IC50 (Cbl-b [9]; [24]): < 1 nM
CCOc1cc(C2(Cc3nncn3C)COC2)cc(N2Cc3c(cc(CN4CCC[C@H](C)C4)cc3C(F)(F)F)C2=O)n1 [Compound 39, 2-(6-ethoxy-4-{3-[(4-methyl-1,2,4-triazol-3-yl)methyl]oxetan-3-yl}pyridin-2-yl)-6-{[(3S)-3-methylpiperidin-1-yl]methyl}-4-(trifluoromethyl)-3H-isoindol-1-one] | > 1.39 | > 1.39 | > 1.14 | > 1.14 | < 1 nM | > 1.39 | > 1.39 | > 1.14 | > 1.14 | > 1.39 | > 1.39 | > 1.14 | > 1.14 | > 15 | > 15 | > 0.66 | > 0.66 | > 15 | > 15 | > 0.66 | fold induction at 3 µM ([6]; anti-CD3 alone): > 0.66; IC50 (Cbl-b [7]): < 1 nM; fold induction at 0.3 µM [8, 10]: > 15; fold induction at 1 µM [8, 21]: > 15; fold induction at 1 µM [8, 22]: > 0.66; fold induction at 3 µM ([8]; anti-CD3 alone): > 0.66; IC50 (Cbl-b [9]; [23]): < 1 nM; IC50 (Cbl-b [9]; [24]): < 1 nM
